Like-named read-outs stand apart in the source and are kept apart here.

The subject of one series is T47D. Briefly: Alamar blue fluorescence viability (IC50), T47D. The class given is cell-based. The conditions noted are these: Homo sapiens, 24 h, read-out: IC50 24 hr (μM). As to the method: (§1) Cancer Cell Lines: Culturing Conditions and Validation. All cell lines were cultured at 37° C. with 5% CO2. All ERα-positive cell lines were grown in media lacking phenol red. MCF-7 were grown in EMEM with 10% FBS and 1% penicillin-streptomycin (P/S). T47D were cultured in MEM with 10% FBS and 1% P/S. TYS and TDG cells were grown in MEM supplemented with 10% CD-FBS and 1% P/S. HCT-116 and MDA-MB-231 cells were cultured in RPMI-1640 supplemented with 10% FBS and 1% P/S. MDA-MB-436 cells were cultured in DMEM supplemented with 10% FBS and 1% P/S. HT-29 were cultured in McCoy's media supplemented with 10% FBS and 1% P/S. All cell lines were used directly from ATCC stocks and/or have been further authenticated using PowerPlex16HS Assay (Promega) as described previously.^54 In short, >1 million cells were harvested and lysed using the cell lysis buffer (50 mM Tris, 50 mM EDTA, 25 mM sucrose, 100 mM NaCl, 1% SDS, pH 8). […]
(§2) Alamar Blue Fluorescence for Anticancer Activity (IC50). […] After 2-6 hours incubation, each well's fluorescence (λexcit.=555 nm, λemission.=585 nm) was measured using a SpectraMax M3 plate reader (Molecular Devices). Percent dead was determined by comparison to a 100% dead control: 100 μM raptinal treated cells. Dose dependent curves and IC50 were calculated using Origin Pro V10.

Series [1] can be described thus: Simulated gastric fluid (SGF) stability assay. It is filed as in vitro ADME. Particulars: 100 μM in SGF with pepsin, 120 min. The procedure:
Simulated Gastric Fluid (SGF) Stability Assay. SGF was prepared fresh by adding 3.2 g pepsin (Sigma Aldrich P7000) to 1000 mL of SGF (Fischer Scientific 7108-16) and the pH adjusted to 1.2 using a pH meter. This SGFwith pepsin solution was then warmed to 37° C. 990 μL of warmed SGFwith pepsin was then aliquoted into multiple Eppendorf tubes, followed by 10 μL of 10 mM DMSO stock solutions of test compounds. Erythromycin (MedChemExpress HY-B0220) is a positive control for this stability assay. Samples were incubated at 37° C. for the entire experiment with vortexing every 15 minutes. At each desired time point (0, 15, 30, 60, 120 minutes), a 100 μL aliquot is removed and quenched into 50 μL of acetonitrile. Samples are stored at 4° C. until all time points are complete. Samples were then vortexed and then clarified at 3,000 RPM for 10 minutes in a 4° C. centrifuge. Supernatants were collected and compound concentrations determined by LC-MS/MS (UIUC Metabolomics Center, Urbana, IL.). Determined compound concentrations were used to calculate percent remaining compared to t=0 samples.

Another series deals with MCF-7 tumors. The series is described as follows: MCF-7 orthotopic tumor model. The class given is in vivo, mice. As to the method: MCF-7 Orthotopic Tumor Model. Nu/J ovariectomized mice (Jackson's lab) were supplemented with a 60-day E2 pellet (0.36 mg, Innovative Research of America) 2-3 days prior to tumor cell inoculation. MCF-7 cells (5×10^6, in 1:1 HBSS:matrigel) were inoculated into the mammary fat pad and allowed to establish and tumors grown to ˜300-400 mm^3 (˜21-28 days to establish). […] Tumor size was measured by caliper, and mouse weights were recorded.

A further series has as its system MDA-MB-436. Briefly: Alamar blue fluorescence viability (IC50), MDA-MB-436. The class given is cell-based. The conditions noted are these: for IC50: Homo sapiens. The procedure:
Cancer Cell Lines: Culturing Conditions and Validation. All cell lines were cultured at 37° C. with 5% CO2. All ERα-positive cell lines were grown in media lacking phenol red. MCF-7 were grown in EMEM with 10% FBS and 1% penicillin-streptomycin (P/S). T47D were cultured in MEM with 10% FBS and 1% P/S. TYS and TDG cells were grown in MEM supplemented with 10% CD-FBS and 1% P/S. HCT-116 and MDA-MB-231 cells were cultured in RPMI-1640 supplemented with 10% FBS and 1% P/S. MDA-MB-436 cells were cultured in DMEM supplemented with 10% FBS and 1% P/S. HT-29 were cultured in McCoy's media supplemented with 10% FBS and 1% P/S. All cell lines were used directly from ATCC stocks and/or have been further authenticated using PowerPlex16HS Assay (Promega) as described previously.^54 In short, >1 million cells were harvested and lysed using the cell lysis buffer (50 mM Tris, 50 mM EDTA, 25 mM sucrose, 100 mM NaCl, 1% SDS, pH 8). DNA extraction and short tandem repeats (STRs) profiling for each cell line were carried out at the University of Arizona Genetics Core (UAGC). Autosomal STR profiles were compared to reference databases such as ATCC, DSMZ, and JCRB.
Alamar Blue Fluorescence for Anticancer Activity (IC50). 2,000-15,000 cells per well were seeded a 96-well plate. Cells were allowed to adhere before DMSO stock solutions of test compounds were added to each well with a final concentration of DMSO in each well=1%; final volume: 100 μL. At the end of the desired incubation time (e.g., 24 or 72 hours), media in each well was aspirated and new fresh media (no compound, 100 μL) was added. Alamar blue solution (4 mg resazurin per 40 mL PBS) was then added (10 μL). After 2-6 hours incubation, each well's fluorescence (λexcit.=555 nm, λemission.=585 nm) was measured using a SpectraMax M3 plate reader (Molecular Devices). Percent dead was determined by comparison to a 100% dead control: 100 μM raptinal treated cells. Dose dependent curves and IC50 were calculated using Origin Pro V10.

The test system of the next series is T47D-ERaY537S (TYS). The series is described as follows: Alamar blue fluorescence viability (IC50), TYS. It is filed as cell-based. Particulars: 24 h, read-out: IC50 24 hr (μM). As to the method: as §1, §2
The test system of the next series is CD-1 mice. Briefly: Maximum tolerated dose (MTD) in mice. It is filed as in vivo. An excerpt:
(§3) Maximum Tolerated Dose (MTD) Experiments in Mice and Rats. […] Rodents were monitored for signs of distress, lethargy, neurotoxicity, and so forth for multiple days after compound administration. […] The MTD was defined as the maximum dose in which any acute side effects observed were tolerated and no lethality observed.

Series [2] is described as follows: Maximum tolerated dose (MTD) in mice. The class given is in vivo. Particulars: female, CD-1, in vivo, Mouse, single dose, read-out: MTD.
Description: as §3

For series [3], the system named is anticipatory unfolded protein response (a-UPR). The series is described as follows: a-UPR immunoblotting/western blot in MCF-7 cells. The class given is cell-based. As to the method:
a-UPR Immunoblotting/Western Blot Procedure. 400,000 MCF-7 cells/per well were seeded into 6 or 12 well plates and allowed to adhere overnight. Media was then aspirated from each well and then fresh media with diluted test compound (0.1% DMSO concentration) was added accordingly. Cells were incubated for 4 or 6 hours, then harvested. PBS-washed cell pellets were then lysed using RIPA buffer containing phosphatase (BioVision) and protease inhibitor cocktail (Calbiochem). Protein concentrations were determined using the BCA assay (Pierce). Lysates containing 10-15 μg of protein were loaded onto 4-20% gradient gels (BioRad), and SDS-PAGE was run. Proteins were then transferred onto membrane (PDVF Millipore) and blots blocked with BSA solution (2 g in 40 mL TBST) for one hour. After blocking, primary antibody was added and incubated overnight (using manufacturer's recommended dilutions). Following overnight incubation, blots were washed with TBST (5-minute incubation for each wash, washed 3 times), then incubated with HRP-linked secondary antibody for 1 hour in TBST. Blots were washed (10-minute incubation for each wash for a total of two ten-minute washes). SuperSignal West Pico Solution was then added following manufacturer's procedures and blots imaged with ChemiDoc.
Antibodies. […]

The test system of the next series is T47D-ERαD538G (TDG). Briefly: Alamar blue fluorescence viability (IC50), TDG. The class given is cell-based. Particulars: 24 h, read-out: IC50 24 hr (μM). The procedure:
as §1, §2

Consider `O=C1Nc2c(C(F)(F)F)cccc2[C@@]1(c1ccc(O)cc1)N1CCC(F)(F)CC1` (single isomer, unassigned) [ErSO-DFP], for which the IC50 in the series with T47D turned out to be 0.016 ± 0.002 µM; in the series on MDA-MB-436 (MDA-MB-436, 24 h, read-out: IC50 24 hr (μM)) it was 64 ± 3 µM; in the series on MDA-MB-436 (MDA-MB-436, 72 h, read-out: IC50 72 hr (μM)), 55 ± 9 µM; in the series with T47D-ERaY537S (TYS) it was 0.007 ± 0.001 µM; in the series with T47D-ERαD538G (TDG) it was 0.009 ± 0.001 µM. Moreover, the “% Remaining after 120 min (SD)” value in series [1] is 13±1%. Moreover, the “mouse weight change during MCF-7 study” value with MCF-7 tumors (I.V. 5 mg/kg once-a-week, three total doses) is “no significant weight change”. Moreover, the “antitumor effect on MCF-7 tumors” value with MCF-7 tumors (I.V. 5 mg/kg once-a-week, three total doses, tumors >300 mm^3) was “profound regression of MCF-7 tumors”. Further, the “increase in therapeutic index (TI) relative to ErSO” value with MCF-7 tumors (from efficacy data and head-to-head MTD studies) is not below 5 fold. Further, the “Fold Change” value with MDA-MB-436 (Average Fold Change between 24/72 hr IC50 values for MCF-7 and MDA-MB-436) is recorded as 3235. Besides, the “Fold Increase Rel. to ErSO (MTD)” value in the series on CD-1 mice (Mouse, I.V.) was 4.8. Moreover, in the series with CD-1 mice (both mice and rats, administered intravenously), the “fold increase in tolerability relative to ErSO” value is approximately 5 fold. The MTD in series [2] (iv, I.V.) was 95 mg/kg; in [2] (po, P.O.) it was more than 200 mg/kg. In addition, in [3], the “a-UPR activation (P-AMPK, P-EIF2α, cleavage of ATF6α p90), western blot” value was “activates the a-UPR in a time- and concentration-dependent manner”.

The values are drawn from patent publication US12655104B2, “Anticancer compounds selective for ER-positive cancers” (THE BOARD OF TRUSTEES OF THE UNIVERSITY OF ILLINOIS, priority 2020, dated 2026).
